Measured values reported in patent publication US8877748B2, “Heterocyclic fused anthraquinone derivatives, manufacturing method and pharmaceutical composition using thereof” (National Defense Medical Center, priority 2012, dated 2014).

How the values were obtained:
SF-539 = assay: NCI one-dose screening, CNS cancer SF-539; format: cell-based, human; settings: 10 μM
human tumor cell lines = assay: NCI one-dose screening, Mean / Delta / Range of growth percent over all tested cell lines; format: cell-based; settings: 10 μM; for Growth Percent Delta: delta over all cell lines; for Growth Percent Mean: mean over all cell lines; for Growth Percent Range: range over all cell lines
HS 578-T = assay: NCI one-dose screening, breast cancer HS 578-T; format: cell-based, human; settings: 10 μM; Breast cancer
OVCAR-8 = assay: NCI one-dose screening, ovarian cancer OVCAR-8; format: cell-based, human; settings: 10 μM
UACC-257 = assay: NCI one-dose screening, melanoma UACC-257; format: cell-based, human; settings: 10 μM
HCT-15 = assay: NCI one-dose screening, colon cancer HCT-15; format: cell-based, human; settings: 10 μM
COLO 205 = assay: NCI one-dose screening, colon cancer COLO 205; format: cell-based, human; settings: 10 μM
T-47D = assay: NCI one-dose screening, breast cancer T-47D; format: cell-based, human; settings: 10 μM
MDA-MB-231/ATCC = assay: NCI one-dose screening, breast cancer MDA-MB-231/ATCC; format: cell-based, human; settings: 10 μM
M14 = assay: NCI one-dose screening, melanoma M14; format: cell-based, human; settings: 10 μM
MDA-MB-468 = assay: NCI one-dose screening, breast cancer MDA-MB-468; format: cell-based, human; settings: 10 μM
SF-268 = assay: NCI one-dose screening, CNS cancer SF-268; format: cell-based, human; settings: 10 μM
HOP-62 = assay: NCI one-dose screening, non-small cell lung cancer HOP-62; format: cell-based, human; settings: 10 μM
A549/ATCC = assay: NCI one-dose screening, non-small cell lung cancer A549/ATCC; format: cell-based, human; settings: 10 μM
CCRF-CEM = assay: NCI screening platform one-dose single concentration screening, leukemia CCRF-CEM; format: cell-based, human; settings: 10 μM
CAKI-1 = assay: NCI one-dose screening, renal cancer CAKI-1; format: cell-based, human; settings: 10 μM
SR = assay: NCI one-dose screening, leukemia SR; format: cell-based, human; settings: 10 μM
SNB-19 = assay: NCI one-dose screening, CNS cancer SNB-19; format: cell-based, human; settings: 10 μM
[1] = test system: PC-3 prostate cancer cell line; assay: SRB assay cell viability, PC-3 prostate cancer cell line; format: cell-based, human; settings: PC-3 prostate cancer cell line, Table II prints no unit, μM printed, read-out: SRB assay: 50% inhibition of cancer cell proliferation of sample concentration (IC50) of PC-3 prostate cancer cell line
786-O = assay: NCI one-dose screening, renal cancer 786-O; format: cell-based, human; settings: 10 μM
HCT-116 = assay: NCI one-dose screening, colon cancer HCT-116; format: cell-based, human; settings: 10 μM
SK-MEL-5 = assay: NCI one-dose screening, melanoma SK-MEL-5; format: cell-based, human; settings: 10 μM
HT29 = assay: NCI one-dose screening, colon cancer HT29; format: cell-based, human; settings: 10 μM
NCI-H322M = assay: NCI one-dose screening, non-small cell lung cancer NCI-H322M; format: cell-based, human; settings: 10 μM; Non-small cell lung cancer
SNB-75 = assay: NCI one-dose screening, CNS cancer SNB-75; format: cell-based, human; settings: 10 μM
RXF, 393 = assay: NCI one-dose screening, renal cancer RXF, 393; format: cell-based, human; settings: 10 μM
OVCAR-4 = assay: NCI one-dose screening, ovarian cancer OVCAR-4; format: cell-based, human; settings: 10 μM
ACHN = assay: NCI one-dose screening, renal cancer ACHN; format: cell-based, human; settings: 10 μM
MOLT-4 = assay: NCI one-dose screening, leukemia MOLT-4; format: cell-based, human; settings: 10 μM
HOP-92 = assay: NCI one-dose screening, non-small cell lung cancer HOP-92; format: cell-based, human; settings: 10 μM
SF-295 = assay: NCI one-dose screening, CNS cancer SF-295; format: cell-based, human; settings: 10 μM
UACC-62 = assay: NCI one-dose screening, melanoma UACC-62; format: cell-based, human; settings: 10 μM
HCC-2998 = assay: NCI one-dose screening, colon cancer HCC-2998; format: cell-based, human; settings: 10 μM
NCI-H460 = assay: NCI one-dose screening, non-small cell lung cancer NCI-H460; format: cell-based, human; settings: 10 μM
HL-60, TB = assay: NCI one-dose screening, leukemia HL-60, TB; format: cell-based, human; settings: 10 μM
MCF7 = assay: NCI one-dose screening, breast cancer MCF7; format: cell-based, human; settings: 10 μM
SK-OV-3 = assay: NCI one-dose screening, ovarian cancer SK-OV-3; format: cell-based, human; settings: 10 μM
KM12 = assay: NCI one-dose screening, colon cancer KM12; format: cell-based, human; settings: 10 μM
UO-31 = assay: NCI one-dose screening, renal cancer UO-31; format: cell-based, human; settings: 10 μM
SK-MEL-2 = assay: NCI one-dose screening, melanoma SK-MEL-2; format: cell-based, human; settings: 10 μM
PRMI-8226 cell line = assay: NCI one-dose screening, leukemia PRMI-8226; format: cell-based, human; settings: 10 μM
OVCAR-5 = assay: NCI one-dose screening, ovarian cancer OVCAR-5; format: cell-based, human; settings: 10 μM
NCI-H23 = assay: NCI one-dose screening, non-small cell lung cancer NCI-H23; format: cell-based, human; settings: 10 μM
U251 = assay: NCI one-dose screening, CNS cancer U251; format: cell-based, human; settings: 10 μM
IGROV1 = assay: NCI one-dose screening, ovarian cancer IGROV1; format: cell-based, human; settings: 10 μM
[2] = NCI one-dose screening, renal cancer A489; format: cell-based, human; settings: 10 μM
DU145 = assay: NCI one-dose screening, prostate cancer DU145; format: cell-based, human; settings: 10 μM
OVCAR-3 = assay: NCI one-dose screening, ovarian cancer OVCAR-3; format: cell-based, human; settings: 10 μM
NCl/ADR-RES = assay: NCI one-dose screening, breast cancer NCl/ADR-RES; format: cell-based, human; settings: 10 μM; listed under Ovarian cancer
MDA, -MB-435 = assay: NCI one-dose screening, breast cancer MDA, -MB-435; format: cell-based, human; settings: 10 μM; listed under Melanoma
SN12C = assay: NCI one-dose screening, renal cancer SN12C; format: cell-based, human; settings: 10 μM
MALME-3M = assay: NCI one-dose screening, melanoma MALME-3M; format: cell-based, human; settings: 10 μM
LOX IMVI = assay: NCI one-dose screening, melanoma LOX IMVI; format: cell-based, human; settings: 10 μM
TK-10 = assay: NCI one-dose screening, renal cancer TK-10; format: cell-based, human; settings: 10 μM
K562cell line = assay: NCI one-dose screening, leukemia K562; format: cell-based, human; settings: 10 μM
SK-MEL-28 = assay: NCI one-dose screening, melanoma SK-MEL-28; format: cell-based, human; settings: 10 μM
NCI-H522 = assay: NCI one-dose screening, non-small cell lung cancer NCI-H522; format: cell-based, human; settings: 10 μM
BT-549 = assay: NCI one-dose screening, breast cancer BT-549; format: cell-based, human; settings: 10 μM
PC-3 = assay: NCI one-dose screening, prostate cancer PC-3; format: cell-based, human; settings: 10 μM

O=C1c2ccccc2C(=O)c2c1ccc1nsnc21 [C1, Anthraquinone[2,1-c][1,2,5]thiadiazol-6,11-dione]
Growth Percent SF-539 (SF-539): −47.11%
Growth Percent Delta (human tumor cell lines): 102.68%
Growth Percent Mean (human tumor cell lines): 2.68%
Growth Percent Range (human tumor cell lines): 230.09%
Growth Percent HS 578T (HS 578-T): 7.40%
Growth Percent OVCAR-8 (OVCAR-8): −10.07%
Growth Percent UACC-257 (UACC-257): −83.07%
Growth Percent HCT-15 (HCT-15): 1.48%
Growth Percent COLO 205 (COLO 205): 111.54%
Growth Percent T-47D (T-47D): −45.52%
Growth Percent MDA-MB-231/ATCC (MDA-MB-231/ATCC): −17.33%
Growth Percent M14 (M14): 74.54%
Growth Percent MDA-MB-468 (MDA-MB-468): −73.17%
Growth Percent SF-268 (SF-268): 16.29%
Growth Percent HOP-62 (HOP-62): 103.18%
Growth Percent A549/ATCC (A549/ATCC): 104.19%
Growth Percent CCRF-CEM (CCRF-CEM): −30.81%
Growth Percent CAKI-1 (CAKI-1): 1.97%
Growth Percent SR (SR): 4.96%
Growth Percent SNB-19 (SNB-19): 78.98%
IC50 [1]: 2.5 µM
Growth Percent 786-0 (786-O): −25.98%
Growth Percent HCT-116 (HCT-116): −50.00%
Growth Percent SK-MEL-5 (SK-MEL-5): 8.52%
Growth Percent HT29 (HT29): 116.95%
Growth Percent NCI-H322M (NCI-H322M): 16.07%
Growth Percent SNB-75 (SNB-75): 79.03%
Growth Percent RXF 393 (RXF, 393): 20.11%
Growth Percent OVCAR-4 (OVCAR-4): −94.43%
Growth Percent ACHN (ACHN): −94.31%
Growth Percent MOLT-4 (MOLT-4): −40.09%
Growth Percent HOP-92 (HOP-92): −100.00%
Growth Percent SF-295 (SF-295): 126.17%
Growth Percent UACC-62 (UACC-62): −82.32%
Growth Percent HCC-2998 (HCC-2998): −0.74%
Growth Percent NCI-H460 (NCI-H460): 125.82%
Growth Percent HL-60(TB) (HL-60, TB): −21.77%
Growth Percent MCF7 (MCF7): −50.74%
Growth Percent SK-OV-3 (SK-OV-3): 100.70%
Growth Percent KM12 (KM12): 98.60%
Growth Percent UO-31 (UO-31): −79.30%
Growth Percent SK-MEL-2 (SK-MEL-2): −73.16%
Growth Percent RPMI-8226 (PRMI-8226 cell line): −27.97%
Growth Percent OVCAR-5 (OVCAR-5): −20.07%
Growth Percent NCI-H23 (NCI-H23): 97.80%
Growth Percent U251 (U251): −89.26%
Growth Percent IGROV1 (IGROV1): −88.34%
Growth Percent A498 [2]: 130.09%
Growth Percent DU145 (DU145): 40.76%
Growth Percent OVCAR-3 (OVCAR-3): −15.47%
Growth Percent NCI/ADR-RES (NCl/ADR-RES): −2.53%
Growth Percent MDA-MB-435 (MDA, -MB-435): −87.88%
Growth Percent SN12C (SN12C): −73.27%
Growth Percent MALME-3M (MALME-3M): −71.64%
Growth Percent LOX IMVI (LOX IMVI): −50.63%
Growth Percent TK-10 (TK-10): 96.99%
Growth Percent K562 (K562cell line): 49.61%
Growth Percent SK-MEL-28 (SK-MEL-28): 15.47%
Growth Percent NCI-H522 (NCI-H522): 77.41%

O=C1c2ccccc2C(=O)c2c1cc(Cl)c1nsnc21 [C2, 4-Chloro-anthraquinone[2,1-c][1,2,5] thiadiazole-6,11-dione]
Growth Percent SF-539 (SF-539): 108.52%
Growth Percent Delta (human tumor cell lines): 143.22%
Growth Percent Mean (human tumor cell lines): 54.91%
Growth Percent Range (human tumor cell lines): 222.37%
Growth Percent HS 578T (HS 578-T): 72.54%
Growth Percent OVCAR-8 (OVCAR-8): −4.57%
Growth Percent UACC-257 (UACC-257): 76.09%
Growth Percent HCT-15 (HCT-15): 96.8%
Growth Percent COLO 205 (COLO 205): 99.08%
Growth Percent T-47D (T-47D): −54.59%
Growth Percent MDA-MB-231/ATCC (MDA-MB-231/ATCC): −23.35%
Growth Percent M14 (M14): 102.73%
Growth Percent MDA-MB-468 (MDA-MB-468): −88.31%
Growth Percent SF-268 (SF-268): 37.03%
Growth Percent HOP-62 (HOP-62): 82.19%
Growth Percent A549/ATCC (A549/ATCC): 103.21%
Growth Percent CCRF-CEM (CCRF-CEM): −41.78%
Growth Percent CAKI-1 (CAKI-1): 96.51%
Growth Percent SR (SR): −23.86%
Growth Percent SNB-19 (SNB-19): 105.75%
IC50 [1]: 13.5 µM
Growth Percent 786-0 (786-O): 102.14%
Growth Percent HCT-116 (HCT-116): 48.15%
Growth Percent SK-MEL-5 (SK-MEL-5): 72.45%
Growth Percent NCI-H322M (NCI-H322M): 75.02%
Growth Percent BT-549 (BT-549): 101.5%
Growth Percent SNB-75 (SNB-75): 85.25%
Growth Percent RXF 393 (RXF, 393): 71.92%
Growth Percent OVCAR-4 (OVCAR-4): −75.03%
Growth Percent MOLT-4 (MOLT-4): −34.12%
Growth Percent HOP-92 (HOP-92): 75.8%
Growth Percent SF-295 (SF-295): 109.08%
Growth Percent UACC-62 (UACC-62): 72.91%
Growth Percent HCC-2998 (HCC-2998): 105.67%
Growth Percent NCI-H460 (NCI-H460): 108.2%
Growth Percent HL-60(TB) (HL-60, TB): 1.87%
Growth Percent MCF7 (MCF7): 65.36%
Growth Percent SK-OV-3 (SK-OV-3): 109.05%
Growth Percent KM12 (KM12): 95.88%
Growth Percent UO-31 (UO-31): 80.15%
Growth Percent SK-MEL-2 (SK-MEL-2): 0.21%
Growth Percent RPMI-8226 (PRMI-8226 cell line): 27.81%
Growth Percent NCI-H23 (NCI-H23): 100.39%
Growth Percent U251 (U251): 29.19%
Growth Percent IGROV1 (IGROV1): 52.47%
Growth Percent A498 [2]: 93.79%
Growth Percent DU145 (DU145): 96.95%
Growth Percent OVCAR-3 (OVCAR-3): 49.88%
Growth Percent SN12C (SN12C): 71.92%
Growth Percent MALME-3M (MALME-3M): 97.09%
Growth Percent LOX IMVI (LOX IMVI): 10.23%
Growth Percent TK-10 (TK-10): 134.06%
Growth Percent K562 (K562cell line): 2.44%
Growth Percent SK-MEL-28 (SK-MEL-28): 131.75%
Growth Percent NCI-H522 (NCI-H522): 100.18%
Growth Percent PC-3 (PC-3): 23.54%
